According to patent US7541352B2, “Compounds for the treatment of hepatitis C” (Bristol-Myers Squibb Company, priority 2007, dated 2009):
Read-outs that look alike come from different tables or passages of the source.

Experiments:
[1] = molecular target: T1, HCV NS5B RdRp genotype 1b (Hepatitis C virus genotype 1b, UniProt Q9WMX2); test: Modified HCV NS5B RdRp enzyme assay (preincubation protocol); type: biochemical
T1 construct: The protein was expressed with an 18 amino acid C-terminal truncation to enhance the solubility; made in house; host or cells: E. coli BL21(DE3), pET21a
Method: HCV NS5B RdRp cloning, expression, and purification. The cDNA encoding the NS5B protein of HCV, genotype 1b, was cloned into the pET21a expression vector. The protein was expressed with an 18 amino acid C-terminal truncation to enhance the solubility. The E. coli competent cell line BL21(DE3) was used for expression of the protein. Cultures were grown at 37° C. for ˜4 hours until the cultures reached an optical density of 2.0 at 600 nm. The cultures were cooled to 20° C. and induced with 1 mM IPTG. Fresh ampicillin was added to a final concentration of 50 μg/ml and the cells were grown overnight at 20° C.
Cell pellets (3 L) were lysed for purification to yield 15-24 mgs of purified NS5B. The lysis buffer consisted of 20 mM Tris-HCl, pH 7.4, 500 mM NaCl, 0.5% triton X-100, 1 mM DTT, 1 mM EDTA, 20% glycerol, 0.5 mg/ml lysozyme, 10 mM MgCl2, 15 ug/ml deoxyribonuclease I, and Complete TM protease inhibitor tablets (Roche). After addition of the lysis buffer, frozen cell pellets were resuspended using a tissue homogenizer. To reduce the viscosity of the sample, aliquots of the lysate were sonicated on ice using a microtip attached to a Branson sonicator. The sonicated lysate was centrifuged at 100,000×g for 1 hr at 4° C. and filtered through a 0.2 μm filter unit (Corning).
The protein was purified using two sequential chromatography steps: Heparin sepharose CL-6B and polyu sepharose 4B (Pharmacia). The chromatography buffers were identical to the lysis buffer but contained no lysozyme, deoxyribonuclease I, MgCl2 or protease inhibitor and the NaCl concentration of the buffer was adjusted according to the requirements for charging the protein onto the column. Each column was eluted with a NaCl gradient which varied in length from 5-50 column volumes depending on the column type. After the final chromatography step, the resulting purity of the enzyme is >90% based on SDS-PAGE analysis. The enzyme was aliquoted and stored at −80° C.
Standard HCV NS5B RdRp enzyme assay. HCV RdRp genotype 1b assays were run in a final volume of 60 μl in 96 well plates (Corning 3600). The assay buffer is composed of 20 mM Hepes, pH 7.5, 2.5 mM KCl, 2.5 mM MgCl2, 1 mM DTT, 1.6 U RNAse inhibitor (Promega N2515), 0.01 mg/ml BSA (Sigma B6917), and 2% glycerol. All compounds were serially diluted (3-fold) in DMSO and diluted further in water such that the final concentration of DMSO in the assay was 2%. HCV RdRp genotype 1b enzyme was used at a final concentration of 28 nM. A polyA template was used at 6 nM, and a biotinylated oligo-dT 12 primer was used at 180 nM final concentration. Template was obtained commercially (Amersham 27-4110). Biotinylated primer was prepared by Sigma Genosys. 3H-UTP was used at 0.6 μCi (0.29 μM total UTP). Reactions were initiated by the addition of enzyme, incubated at 30° C. for 60 min, and stopped by adding 25 μl of 50 mM EDTA containing SPA beads (4 μg/μl, Amersham RPNQ 0007). Plates were read on a Packard Top Count NXT after >1 hr incubation at room temperature.
Modified HCV NS5B RdRp enzyme assay. A modified enzyme assay was performed essentially as described for the standard enzyme assay except for the following: The biotinylated oligo dT12 primer was precaptured on streptavidin-coated SPA beads by mixing primer and beads in assay buffer and incubating at room temperature for one hour. Unbound primer was removed after centrifugation. The primer-bound beads were resuspended in 20 mM Hepes buffer, pH 7.5 and used in the assay at final concentrations of 20 nM primer and 0.67 μg/μl beads. Order of addition in the assay: enzyme (1.75 nM) was added to diluted compound followed by the addition of a mixture of template (0.36 nM), 3H-UTP (0.6 μCi, 0.29 μM), and primer-bound beads, to initiate the reaction; concentrations given are final. Reactions were allowed to proceed for 4 hours at 30° C.
IC50 values for compounds were determined using seven different [I]. […]

HCV replicon cells = test: HCV replicon FRET assay; type: cell-based; conditions: Hepatitis C virus
Method: FRET Assay Preparation. The HCV FRET screening assay was performed in 96-well cell culture plates. The FRET peptide (Anaspec, Inc.) (Taliani et al., Anal. Biochem. 1996, 240, 60-67) contains a fluorescence donor, EDANS, near one end of the peptide and an acceptor, DABCYL, near the other end. The fluorescence of the peptide is quenched by […] resonance energy transfer (RET) between the donor and the acceptor, but as the NS3 protease cleaves the peptide the products are released from RET quenching and the fluorescence of the donor becomes apparent. The assay reagent was made as follows: 5× cell Luciferase cell culture lysis reagent from Promega (#E153A) diluted to 1× with dH2O, NaCl added to 150 mM final, the FRET peptide diluted to 20 μM final from a 2 mM stock.
To prepare plates, HCV replicon cells, with or without a Renilla luciferase reporter gene, were trypsinized and plated in a 96-well plate with titrated test compounds added in columns 3 through 12; columns 1 and 2 contained a control compound (HCV control inhibitor), and the bottom row contained cells with DMSO only. The plates were then placed in a CO2 incubator at 37° C.
Assays. Subsequent to addition of the test compounds described above (FRET Assay Preparation), at various times the plate was removed and Alamar blue solution (Trek Diagnostics, #00-100) was added to measure cellular toxicity. After reading in a Cytoflour 4000 instrument (PE Biosystems), plates were rinsed with PBS and then used for FRET assay by the addition of 30 ul of the FRET peptide assay reagent described above (FRET Assay Preparation) per well. The plate was then placed into the Cytoflour 4000 instrument which had been set to 340 excite/490 emission, automatic mode for up to 20 cycles and the plate read in a kinetic mode. Typically, the signal to noise using an endpoint analysis after the reads was at least three-fold. Alternatively, after Alamar blue reading, plates were rinsed with PBS, then used for luciferase assay using the Promega Dual-Glo Luciferase Assay System or the Promega EnduRen Live Cell Substrate assay.
Compound analysis was performed by quantification of the relative HCV replicon inhibition and the relative cytotoxicity values. To calculate cytoxicity values, the average Alamar Blue fluorescence signals from the control wells were set as 100% non-toxic. The individual signals in each of the compound test wells were then divided by the average control signal and multiplied by 100% to determine […]. To calculate the HCV replicon inhibition values, an average background value was obtained from the two wells containing the highest amount of HCV control inhibitor at the end of the assay period. These numbers were similar to those obtained from naïve Huh-7 cells. The background numbers were then subtracted from the average signal obtained from the control wells and this number was used as 100% activity. The individual signals in each of the compound test wells were then divided by the averaged control values after background subtraction and multiplied by 100% to determine percent activity. EC50 values were calculated as the concentration which caused a 50% reduction in FRET or luciferase activity. The two numbers generated for the compound plate, percent cytoxicity and percent activity, were used to determine compounds of interest for further analysis.

[2] = HCV NS5B RdRp, determined using the preincubation protocol, read-out: IC50
[3] = HCV replicon cells, determined using the FRET assay, read-out: EC50

T1 sequence (Q9WMX2 2420-2992): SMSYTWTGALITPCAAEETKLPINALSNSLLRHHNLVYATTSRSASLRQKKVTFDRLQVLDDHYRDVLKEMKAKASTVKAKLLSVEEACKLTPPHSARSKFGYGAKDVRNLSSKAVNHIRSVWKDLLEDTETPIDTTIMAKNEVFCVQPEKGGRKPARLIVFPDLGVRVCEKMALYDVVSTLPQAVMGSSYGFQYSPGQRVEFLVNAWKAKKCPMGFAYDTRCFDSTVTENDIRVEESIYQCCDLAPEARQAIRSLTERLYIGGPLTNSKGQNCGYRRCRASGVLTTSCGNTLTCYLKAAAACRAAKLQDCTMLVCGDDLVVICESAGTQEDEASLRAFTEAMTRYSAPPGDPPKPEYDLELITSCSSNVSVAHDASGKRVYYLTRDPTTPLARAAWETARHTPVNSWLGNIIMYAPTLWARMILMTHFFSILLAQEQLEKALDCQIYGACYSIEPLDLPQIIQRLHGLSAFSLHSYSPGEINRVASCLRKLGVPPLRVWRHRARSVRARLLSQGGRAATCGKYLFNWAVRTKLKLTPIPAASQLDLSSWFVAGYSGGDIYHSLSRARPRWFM

Row | SMILES | IC50 [1, 2] [nM] | EC50 (HCV replicon cells; [3]) [nM] | IC50 [1] [nM] | EC50 (HCV replicon cells) [nM]
1 | COc1ccc2c(c1)C1CC1(NC(=O)C(=O)N1CCCN(C)CC1)Cn1c-2c(C2CCCCC2)c2ccc(C(=O)NS(=O)(=O)N(C)C)cc21 (stereo not shown) | 1 to 500 | 1 to 500 | – | –
2 | COc1ccc2c(c1)[C@H]1C[C@@]1(NC(=O)C(=O)N(C)C)Cn1c-2c(C2CCCCC2)c2ccc(C(=O)NS(=O)(=O)N(C)C)cc21 [drawing 42] | 1 to 500 | 1 to 500 | – | –
3 | COc1ccc2c(c1)C1CC1(NC(=O)C(=O)N1C[C@@H](C)N(C)[C@@H](C)C1)Cn1c-2c(C2CCCCC2)c2ccc(C(=O)NS(=O)(=O)N(C)C)cc21 (stereo partly shown) | 1 to 500 | 1 to 500 | – | –
4 | COc1ccc(C2COCCN2C(=O)C(=O)NC23CC2c2cc(OC)ccc2-c2c(C4CCCCC4)c4ccc(C(=O)NS(=O)(=O)N(C)C)cc4n2C3)cc1 (stereo not shown) | 1 to 500 | 1 to 500 | – | –
5 | COc1ccc2c(c1)C1CC1(N(C)C(=O)C(=O)N1CC(OC)C1)Cn1c-2c(C2CCCCC2)c2ccc(C(=O)NS(=O)(=O)N(C)C)cc21 (stereo not shown) | 1 to 500 | 1 to 500 | – | –
6 | COc1ccc2c(c1)C1CC1(NC(=O)N1C3CCC1CN(C)C3)Cn1c-2c(C2CCCCC2)c2ccc(C(=O)NS(=O)(=O)N(C)C)cc21 (stereo not shown) | – | – | 1 to 500 | 1 to 500
7 | COc1ccc2c(c1)C1CC1(NC(=O)C(=O)N1CCCC1)Cn1c-2c(C2CCCCC2)c2ccc(C(=O)NS(=O)(=O)N(C)C)cc21 (stereo not shown) [drawing 32] | 1 to 500 | 1 to 500 | – | –
8 | COc1ccc2c(c1)C1CC1(NC(=O)C(=O)N(C)C)Cn1c-2c(C2CCCCC2)c2ccc(C(=O)NS(=O)(=O)C(C)C)cc21 (stereo not shown) | 1 to 500 | 1 to 500 | – | –
